From patent US20120258053A1, “ORAL CARE COMPOSITIONS FOR USE WITH AN ORAL LIGHT DEVICE” (COLGATE-PALMOLIVE COMPANY, priority 2009, published 2012)
Entries after “also recorded” stand apart in the source; their conditions may differ.

How the values were obtained:
biofilm of A. naeslundi = assay: Light-triggered reduction of bacterial biofilm (24 h old); assay type: cell-based; settings: for Percentage Reduction in Biofilm, Light plus photosensitizer: 0.1% dye incubated 2 min prior to irradiation, wavelength given with each dye, 24 J/cm^2 (200 mW/cm^2 @ 2 min); for biofilm reduction compared to light alone: 0.1% concentration, in the presence of light
Method: Bacterial biofilms (24 h old) were treated with the photosensitizers or photo-triggered actives described in the tables below at a concentration less than their minimum inhibitory concentration (MIC). The actives were either pre-incubated before light exposure for 2 s to 15 min, typically less than 2 min, or administered at the same time the biofilm was exposed to the light. The bacteria were irradiated at a set wavelength for 2 s to 15 min (typically less than 2 min) at an energy dose between 1-450 J/cm^2. Optical power densities typically ranged from 1-500 mW/cm^2. Light was either pulsed or provided in one continuous light exposure. Pulsed light treatments were preferred for high optical energy treatments.
On a biofilm of A. naeslundi, the impact of four “photosensitizers” (0.1% concentration) in the presence of light was evaluated. MIC typically ranged from 0.0001% (w/v) to 1% (w/v). The percent biofilm reduction is tabulated below.

[1] = test system: TNFα of HEPM cells stimulated by IL-1β; assay: Cytokine concentration in IL-1β stimulated cell culture after light irradiation with dye; assay type: cell-based, human; settings: 9 mW/cm^2, 1.1 J/cm^2
Method: Cells used in this example include human embryonic palatal mesenchymal (HEPM) cells and oral keratinocytes OBA9 cells. The embodiments also can be used with other cells such as human gingival fibroblasts (HGF). Cells were seeded in 24-well plates and cultured until reaching a confluence above 80%. The confluent-stage cells were treated with stimulants such as IL-1β followed by light irradiation alone, or light irradiation combined with GRAS photosensitizing dye. The cells were either pre-incubated in photosensitizing dye before light exposure, or administered at the same time of light exposure. The cells were incubated in photosensitizing dyes for varied amounts of time, the concentration of photosensitizing dyes were varied, and the cell were irradiated with light for varied amounts of time per exposure, as well as irradiation either one time or multiple times, as described below. After irradiation, the cells were incubated at 37° C. The cell culture media was collected after a certain amount of time for cytokine analysis.
The results tabulated below reveal that visible light (various wavelength, 380-700 nm) alone and photosensitizing dye irradiated with visible light (various wavelength, 380-700 nm) have anti-inflammation effect. […]

Compound | Percentage Reduction in Biofilm, Light plus photosensitizer (biofilm of A. naeslundi) [%] | biofilm reduction compared to light alone (biofilm of A. naeslundi) | effect on TNFα concentration ([1]; Fast Green 1000 ppm combined with light at 625 nm for 2 minutes) | Cytokine Conc. TNF-α, Il-1β + light + Dye ([1]; HEPM cells, IL-1β stimulated, Fast Green 1000 ppm, 625 nm, 2 minutes, Il-1β alone 9, Il-1β + light 5.8) [pg/mL]
O=S(=O)([O-])c1ccc(/N=N/c2cc(S(=O)(=O)[O-])c3ccccc3c2O)c2ccccc12.[Na+].[Na+] [Chromotrope, Chromotrope FB] | 18 | – | – | –
CCN(Cc1cccc(S(=O)(=O)[O-])c1)c1ccc(C(=C2C=CC(=[N+](CC)Cc3cccc(S(=O)(=O)[O-])c3)C=C2)c2ccc(O)cc2S(=O)(=O)[O-])cc1.[Na+].[Na+] [Fast Green, Fast Green FCF] | 43 | increased biofilm reduction compared to light alone | can decrease pro-inflammation cytokine TNFα concentration; also recorded: can reduce concentration of TNFα | 3.4
CN(C)c1ccc(C(=C2C=CC(=[N+](C)C)C=C2)c2c(O)c(S(=O)(=O)[O-])cc3cc(S(=O)(=O)[O-])ccc23)cc1.[Na+] [Lissamine Green B] | 43 | increased biofilm reduction compared to light alone | – | –
CCN(Cc1cccc(S(=O)(=O)[O-])c1)c1ccc(C(=C2C=CC(=[N+](CC)Cc3cccc(S(=O)(=O)[O-])c3)C=C2)c2ccccc2S(=O)(=O)[O-])cc1.[Na+].[Na+] [Erioglaucine, Erioglaucine disodium salt] | 41 | – | – | –
COc1cc(S(=O)(=O)[O-])c(C)cc1N=Nc1c(O)ccc2cc(S(=O)(=O)[O-])ccc12.[Na+].[Na+] [Allura Red, Allura Red AC] | 55 | increased biofilm reduction compared to light alone | – | –
Cc1cc2nc3c(=O)[nH]c(=O)nc-3n(C[C@H](O)[C@H](O)[C@H](O)CO)c2cc1C [Riboflavin] | 56 | increased biofilm reduction compared to light alone | – | –
Chlorophyllin sodium copper salt | 21 | – | – | –
O=C([O-])C1=NN(c2ccc(S(=O)(=O)[O-])cc2)C(=O)C1N=Nc1ccc(S(=O)(=O)[O-])cc1.[Na+].[Na+].[Na+] (stereo not shown) [Tartrazine] | 72 | increased biofilm reduction compared to light alone | – | –
O=C1/C(=C2\Nc3ccc(S(=O)(=O)[O-])cc3C2=O)Nc2ccc(S(=O)(=O)[O-])cc21.[Na+].[Na+] [Indigo Carmine] | 30 | – | – | –
